US10675271B2, “Clonidine and/or clonidine derivatives for use in the prevention and/or treatment of adverse side effects of chemotherapy” (ONXEO, priority 2015, dated 2020)

Tested on: patients with head and neck cancer
Experimental: A phase II, multicentre, randomised, double-blind, placebo-controlled study was performed to compare the efficacy of the mucoadhesive buccal tablets of Example 1D, comprising 50 μg of clonidine hydrochloride, applied once daily to that of placebo in the prevention and treatment of […] following radiotherapy in patients with head and neck cancer (suffering from a newly diagnosed squamous cell carcinoma of the oral cavity, oropharynx, hypopharynx or larynx). These patients received, within 15 weeks after curative surgery, a cumulative radiation dose of radiation ranging from 50 to 70 Gray in oral cavity, based on a daily dosing between 1.8 and 2.2 Gy, combined with platinum-based chemotherapy, based on a weekly or tri-weekly cycle. Clonidine was administered in the form of a mucoadhesive tablet that was applied into the mouth, on the upper gum, for about 30 seconds, after which it remained in place for several hours. The treatment with clonidine hydrochloride started from 1 to 3 days before radiotherapy until the end of radiotherapy, for up to 8 weeks. Patients were evaluated twice a week during the radiotherapy period, then one month after stop of radiotherapy.

[1] = mucoadhesive buccal tablet of Example 1D, 50 μg clonidine hydrochloride once daily, up to 8 weeks, radiotherapy plus platinum-based chemotherapy, placebo 12.9%

With `Cl.Clc1cccc(Cl)c1NC1=NCCN1` [Clonidine] as the molecule, how does the occurrence of nausea (additional identical experiment using 100 μg of clonidine hydrochloride) read?
The occurrence of nausea was 46.9%.

And the “Cough (reported adverse side effect, occurrence)” value [1]?
The value was 5.5%.

And the “Fatigue (reported adverse side effect, occurrence)” value [1]?
Its value is 9.1%.

What about the “Headache (reported adverse side effect, occurrence)” value (mucoadhesive buccal tablet of Example 1D, 50 μg clonidine hydrochloride once daily, up to 8 weeks, radiotherapy plus platinum-based chemotherapy, placebo 14.5%) of the same molecule?
The value was 9.1%.

And the “Diarrhoea (reported adverse side effect, occurrence)” value (mucoadhesive buccal tablet of Example 1D, 50 μg clonidine hydrochloride once daily, up to 8 weeks, radiotherapy plus platinum-based chemotherapy, placebo 21.0%)?
Its value is 12.7%.

And the “Asthenia (reported adverse side effect, occurrence)” value (mucoadhesive buccal tablet of Example 1D, 50 μg clonidine hydrochloride once daily, up to 8 weeks, radiotherapy plus platinum-based chemotherapy, placebo 24.2%)?
Its value is 16.4%.

What about the “Vomiting (reported adverse side effect, occurrence)” value (mucoadhesive buccal tablet of Example 1D, 50 μg clonidine hydrochloride once daily, up to 8 weeks, radiotherapy plus platinum-based chemotherapy, placebo 38.7%) of the same molecule?
The value was 25.5%.

And the “Nausea (reported adverse side effect, occurrence)” value (mucoadhesive buccal tablet of Example 1D, 50 μg clonidine hydrochloride once daily, up to 8 weeks, radiotherapy plus platinum-based chemotherapy, placebo 71.0%)?
Its value is 52.7%.
